Reference: ChEMBL document CHEMBL1201862, “PubChem BioAssay data set” (2004)
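Cultured in 96-well plates, cells were exposed to test compound for 48 hours across five concentrations. GI50 is the concentration that inhibits growth by half.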 Activity calls are given as the source filed them. Rule as the data show it: active = GI50 up to about 1.1 µM and inactive = higher.

Tests used:
Experiment in all cases: inhibition of tumour cell growth, NCI panel, 48 h
Hs-578T = tested on: Hs-578T
Malme-3M = tested on: Malme-3M
CCRF-CEM = tested on: CCRF-CEM
A549 = tested on: A549
UO-31 = tested on: UO-31
NCI-H226 = tested on: NCI-H226
SR = tested on: SR
SF-268 = tested on: SF-268
OVCAR-8 = tested on: OVCAR-8
PC-3 = tested on: PC-3
NCI-H23 = tested on: NCI-H23
MOLT-4 = tested on: MOLT-4
HCC 2998 = tested on: HCC 2998
MDA-N = tested on: MDA-N
SK-MEL-5 = tested on: SK-MEL-5
M14 = tested on: M14
SK-MEL-28 = tested on: SK-MEL-28
NCI/ADR-RES = tested on: NCI/ADR-RES
HOP-92 = tested on: HOP-92
DU-145 = tested on: DU-145

Measured: GI50

CN1CC(c2ccccc2)=CC2=C1C=CC(=N)/C2=N\N
inactive: Hs-578T 35.3 µM | Malme-3M 42.3 µM | CCRF-CEM > 100 µM | A549 > 100 µM | UO-31 > 100 µM | NCI-H226 6.65 µM | SR > 100 µM | SF-268 > 100 µM | OVCAR-8 > 100 µM | PC-3 > 100 µM | NCI-H23 > 100 µM | MOLT-4 > 100 µM | HCC 2998 > 100 µM | MDA-N > 100 µM | SK-MEL-5 > 100 µM | M14 > 100 µM | SK-MEL-28 > 100 µM | NCI/ADR-RES 47.1 µM

O=C(O)CCCOc1cc(-c2ccccc2F)nc2cc3c(cc12)OCO3
inactive: HOP-92 13 µM | Malme-3M 7.38 µM | CCRF-CEM 3.27 µM | DU-145 5.75 µM | A549 5.77 µM | SR 3.93 µM | OVCAR-8 5.66 µM | PC-3 3 µM | NCI-H23 44.9 µM | MOLT-4 5.9 µM | HCC 2998 46.1 µM | MDA-N 1.72 µM | M14 3.73 µM | SK-MEL-28 7.89 µM | NCI/ADR-RES 4.65 µM

C=C1C(=O)OC2/C=C(/CO)C3(O)CC(O)C(C)(CC(OC(=O)/C(C)=C/C)C12)O3 (stereo unspecified)
inactive: HOP-92 9.91 µM | Hs-578T 53.5 µM | Malme-3M 10.2 µM | CCRF-CEM 2.1 µM | DU-145 18.5 µM | A549 32.8 µM | UO-31 20.4 µM | NCI-H226 18.5 µM | SR 4.57 µM | SF-268 11 µM | OVCAR-8 7.66 µM | PC-3 26.3 µM | NCI-H23 13.6 µM | MOLT-4 2.47 µM | HCC 2998 10.6 µM | MDA-N 10.2 µM | SK-MEL-5 11.1 µM | M14 17.7 µM | SK-MEL-28 7.64 µM

COc1ccc2c(c1)NC1(CCN(CCCC(=O)c3ccc(F)cc3)CC1)N=N2
inactive: HOP-92 29.9 µM | Malme-3M 15.2 µM | CCRF-CEM 20 µM | DU-145 18.5 µM | A549 36.4 µM | UO-31 18 µM | NCI-H226 22 µM | SR 15.7 µM | SF-268 41.8 µM | PC-3 23.1 µM | NCI-H23 25.8 µM | MOLT-4 15.3 µM | HCC 2998 14.8 µM | MDA-N 17.7 µM | SK-MEL-5 12.6 µM | M14 13.7 µM | SK-MEL-28 20 µM | NCI/ADR-RES 24.4 µM

Cc1ccc2c(=O)c(-c3nnsn3)c[nH]c2n1
inactive: Hs-578T > 100 µM | Malme-3M > 100 µM | CCRF-CEM > 100 µM | DU-145 > 100 µM | A549 > 100 µM | UO-31 > 100 µM | NCI-H226 > 100 µM | SF-268 > 100 µM | OVCAR-8 > 100 µM | PC-3 > 100 µM | NCI-H23 > 100 µM | MOLT-4 > 100 µM | MDA-N > 100 µM | SK-MEL-5 > 100 µM | M14 > 100 µM | SK-MEL-28 > 100 µM | NCI/ADR-RES > 100 µM

N=c1nc(N)nc(N)n1-c1ccc(S(N)(=O)=O)cc1
inactive: HOP-92 > 100 µM | Malme-3M > 100 µM | CCRF-CEM > 100 µM | DU-145 > 100 µM | A549 > 100 µM | UO-31 > 100 µM | NCI-H226 > 100 µM | SR > 100 µM | SF-268 > 100 µM | OVCAR-8 > 100 µM | PC-3 > 100 µM | NCI-H23 > 100 µM | MOLT-4 > 100 µM | MDA-N > 100 µM | SK-MEL-5 > 100 µM | M14 > 100 µM | SK-MEL-28 > 100 µM | NCI/ADR-RES > 100 µM

Cc1n[n+](CC(=O)c2ccccc2)c2sc(N)nn12
inactive: Hs-578T > 100 µM | Malme-3M > 100 µM | CCRF-CEM > 100 µM | DU-145 > 100 µM | A549 96.8 µM | UO-31 > 100 µM | NCI-H226 > 100 µM | SF-268 > 100 µM | OVCAR-8 > 100 µM | PC-3 > 100 µM | NCI-H23 > 100 µM | MOLT-4 > 100 µM | MDA-N > 100 µM | SK-MEL-5 72.3 µM | M14 > 100 µM | SK-MEL-28 > 100 µM | NCI/ADR-RES > 100 µM

O=C1CCCCCCCCCCC1CN(Cc1ccccc1)Cc1ccccc1 (stereo unspecified)
inactive: HOP-92 78.2 µM | Hs-578T 22.4 µM | Malme-3M 29.4 µM | CCRF-CEM 19.9 µM | DU-145 59 µM | A549 40.7 µM | UO-31 48.5 µM | NCI-H226 51.3 µM | SR 35.5 µM | SF-268 40 µM | OVCAR-8 75.3 µM | PC-3 30.9 µM | NCI-H23 32.2 µM | MOLT-4 17.3 µM | HCC 2998 28.8 µM | MDA-N 40.1 µM | SK-MEL-5 13.1 µM | M14 48 µM | SK-MEL-28 37.7 µM
